# Where “and” joins values, the source holds several entries; their conditions need not be identical. Identical values can stand only once.
# Legend:
# [1] = target: T1, ~100 representative kinases (Homo sapiens, UniProt Q96GD4); test: DSF 100 kinase selectivity screen; type: binding; conditions: Protein AURKB; average of three replicates;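 also: compound tested at 20 µM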
# T1 construct: Recombinant protein kinase domains with a concentration of 2 μM
# Method in brief: (§1)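 Each kinase domain, at 2 μM, is mixed with 20 μM test compound and SYPRO Orange in Hepes (20 mM, pH 7.5) with 500 mM NaCl. Temperature is then raised at 3°C/min and fluorescence-monitored unfolding yields the melting temperature change, ΔTm in degrees Celsius.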
# [2] = target: T2, ~100 representative kinases (Homo sapiens, UniProt Q02750); test: DSF 100 kinase selectivity screen; type: binding; conditions: protein MAP2K1; average of three replicates;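 also: compound tested at 20 µM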
# T2 construct: Recombinant protein kinase domains with a concentration of 2 μM
# Method in brief: as §1
# LRRK2^RCKW = target: T3, LRRK2^RCKW (Homo sapiens, UniProt Q5S007); test: Biochemical LRRK2 activity assay (PhosphoSense, AssayQuant SOX peptide AQT0615); conditions: normalized to 0% (no kinase) and 100% (no inhibitor) control, two singlicate columns per compound
# T3 construct: LRRK2 R1327 to E2527; His6-Z-tag (TEV cleavable) (N, cleaved yes); host or cells: Sf9 insect cells (baculovirus)
# T3 sequence (Q5S007 1327-2527): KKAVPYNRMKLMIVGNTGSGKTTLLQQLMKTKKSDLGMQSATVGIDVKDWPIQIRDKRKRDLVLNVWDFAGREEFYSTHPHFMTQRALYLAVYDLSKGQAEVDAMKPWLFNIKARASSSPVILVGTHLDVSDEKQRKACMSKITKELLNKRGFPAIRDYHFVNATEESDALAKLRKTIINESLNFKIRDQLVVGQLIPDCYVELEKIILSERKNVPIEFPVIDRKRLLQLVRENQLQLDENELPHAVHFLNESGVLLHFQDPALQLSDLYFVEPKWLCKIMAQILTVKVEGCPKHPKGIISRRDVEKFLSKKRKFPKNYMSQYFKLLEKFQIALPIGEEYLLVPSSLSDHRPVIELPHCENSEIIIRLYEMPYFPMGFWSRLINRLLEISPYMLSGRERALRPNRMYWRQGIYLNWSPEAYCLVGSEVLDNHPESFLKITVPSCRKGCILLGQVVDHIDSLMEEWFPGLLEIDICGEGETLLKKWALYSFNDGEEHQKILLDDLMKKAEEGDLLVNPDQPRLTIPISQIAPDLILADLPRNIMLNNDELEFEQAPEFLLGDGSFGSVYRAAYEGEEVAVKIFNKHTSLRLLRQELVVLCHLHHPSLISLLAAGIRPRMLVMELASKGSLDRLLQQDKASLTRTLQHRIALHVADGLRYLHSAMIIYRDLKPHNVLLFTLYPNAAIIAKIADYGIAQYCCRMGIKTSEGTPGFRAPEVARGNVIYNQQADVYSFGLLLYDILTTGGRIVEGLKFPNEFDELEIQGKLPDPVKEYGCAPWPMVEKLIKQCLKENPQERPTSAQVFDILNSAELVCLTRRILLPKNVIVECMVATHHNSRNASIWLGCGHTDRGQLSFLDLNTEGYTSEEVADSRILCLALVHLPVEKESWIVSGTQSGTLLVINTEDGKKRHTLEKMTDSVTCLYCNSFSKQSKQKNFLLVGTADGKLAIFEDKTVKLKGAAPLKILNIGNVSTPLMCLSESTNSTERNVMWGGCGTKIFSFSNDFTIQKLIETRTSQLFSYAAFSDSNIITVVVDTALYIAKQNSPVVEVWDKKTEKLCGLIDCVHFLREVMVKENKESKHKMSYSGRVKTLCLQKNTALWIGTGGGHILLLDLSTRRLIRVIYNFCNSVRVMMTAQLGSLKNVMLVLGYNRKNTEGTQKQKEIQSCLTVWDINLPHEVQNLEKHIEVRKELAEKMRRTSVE
# Method in brief: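 Controls lacked protein and compound (0%) or compound only (100%). IC50 derived by nonlinear regression of normalized response versus log[inhibitor].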
# T1 sequence (Q96GD4 whole entry, the tested form may be a part): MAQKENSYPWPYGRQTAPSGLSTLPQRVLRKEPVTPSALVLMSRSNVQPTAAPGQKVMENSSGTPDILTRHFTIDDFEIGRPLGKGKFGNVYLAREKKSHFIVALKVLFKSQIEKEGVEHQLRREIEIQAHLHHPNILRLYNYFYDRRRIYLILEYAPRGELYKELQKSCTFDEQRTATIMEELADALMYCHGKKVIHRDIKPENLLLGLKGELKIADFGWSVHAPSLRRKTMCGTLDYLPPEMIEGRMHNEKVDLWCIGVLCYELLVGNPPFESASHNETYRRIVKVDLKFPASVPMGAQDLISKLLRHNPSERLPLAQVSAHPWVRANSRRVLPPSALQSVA
# T2 sequence (Q02750 whole entry, the tested form may be a part): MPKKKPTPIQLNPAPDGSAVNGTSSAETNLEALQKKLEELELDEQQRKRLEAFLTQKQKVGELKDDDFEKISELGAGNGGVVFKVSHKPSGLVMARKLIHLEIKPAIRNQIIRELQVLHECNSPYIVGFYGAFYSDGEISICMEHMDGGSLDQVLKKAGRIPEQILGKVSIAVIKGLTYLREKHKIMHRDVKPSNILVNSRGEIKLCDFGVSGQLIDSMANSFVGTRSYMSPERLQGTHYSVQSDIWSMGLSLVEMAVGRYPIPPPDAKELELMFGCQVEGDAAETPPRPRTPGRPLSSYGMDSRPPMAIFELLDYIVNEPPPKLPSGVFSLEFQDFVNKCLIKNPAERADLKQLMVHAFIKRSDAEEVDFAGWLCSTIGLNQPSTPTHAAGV
SMILES,dTm [1],dTm [2],normalized response (LRRK2 activity) (LRRK2^RCKW; log[inhibitor(mol)] -4.82391),normalized response (LRRK2 activity) (LRRK2^RCKW; log[inhibitor(mol)] -5.12494),normalized response (LRRK2 activity) (LRRK2^RCKW; log[inhibitor(mol)] -6.30103),normalized response (LRRK2 activity) (LRRK2^RCKW; log[inhibitor(mol)] -6.90309),normalized response (LRRK2 activity) (LRRK2^RCKW; log[inhibitor(mol)] -7.30103),normalized response (LRRK2 activity) (LRRK2^RCKW; log[inhibitor(mol)] -7.60206),normalized response (LRRK2 activity) (LRRK2^RCKW; log[inhibitor(mol)] -8.09691),normalized response (LRRK2 activity) (LRRK2^RCKW; log[inhibitor(mol)] -8.61979),normalized response (LRRK2 activity) (LRRK2^RCKW; log[inhibitor(mol)] -9.09691),normalized response (LRRK2 activity) (LRRK2^RCKW; log[inhibitor(mol)] -9.39794),normalized response (LRRK2 activity) (LRRK2^RCKW; log[inhibitor(mol)] -5.60206)
"Cc1ccc(C(=O)Nc2ccc(CN3CCN(C)CC3)c(C(F)(F)F)c2)cc1C#Cc1cnc2[nH]ncc2c1 [GZD-824, reference compound]",1.02 K,0.63 K,37.9506% and 22.443%,2.902% and -0.761%,-12.6856% and -11.6517%,-14.8328% and -12.1996%,-10.7195% and -10.9051%,-2.449% and -0.1425%,77.0511% and 75.7389%,100.887% and 96.9327%,102.124% and 93.9328%,100.847% and 103.781%,
"CNC(=O)c1cc(Oc2ccc(NC(=O)Nc3cc(C(C)(C)C)nn3-c3ccc4ncccc4c3)c(F)c2)ccn1 [Rebastinib, reference compound]",1.16 K,0.92 K,,-10.5496% and -14.6792%,2.212% and 3.3144%,28.2838% and 28.5032%,54.9753% and 51.2954%,71.3236% and 68.1209%,89.2569% and 91.5273%,98.1961% and 113.387%,109.62% and 109.044%,108.15% and 116.184%,-7.259% and -5.877%

# Reference: paper PMC12136037, “Type II kinase inhibitors that target Parkinson’s disease–associated LRRK2” (Science Advances, 2025)
